Experimental data: PubChem BioAssay (NCI)
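How tested: cells in 96-well plates exposed to compound for 48 hours at five concentrations. TGI marks complete inhibition of growth.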

Assays:
Test in all cases: inhibition of tumour cell growth, NCI panel, 48 h
SF-295 CNS = system: SF-295 CNS
SNB-19 CNS = system: SNB-19 CNS
LXFL 529 NSCLC = system: LXFL 529 NSCLC
KM20L2 colon = system: KM20L2 colon
DMS 114 small cell lung = system: DMS 114 small cell lung
SN12C renal = system: SN12C renal
NCI-H226 lung = system: NCI-H226 lung
NCI-H522 lung = system: NCI-H522 lung
A498 renal = system: A498 renal
U251 CNS = system: U251 CNS
TK-10 renal = system: TK-10 renal
SK-OV-3 ovarian = system: SK-OV-3 ovarian
NCI-H460 lung = system: NCI-H460 lung
HT29 colon = system: HT29 colon
DMS 273 small cell lung = system: DMS 273 small cell lung
MOLT-4 leukemia = system: MOLT-4 leukemia
K-562 leukemia = system: K-562 leukemia
UACC-257 melanoma = system: UACC-257 melanoma
KM12 colon = system: KM12 colon
MALME-3M melanoma = system: MALME-3M melanoma
ACHN renal = system: ACHN renal
RPMI-8226 leukemia = system: RPMI-8226 leukemia
OVCAR-5 ovarian = system: OVCAR-5 ovarian
COLO 205 colon = system: COLO 205 colon
NCI-H23 lung = system: NCI-H23 lung
SF-539 CNS = system: SF-539 CNS
OVCAR-3 ovarian = system: OVCAR-3 ovarian
UO-31 renal = system: UO-31 renal
786-0 renal = system: 786-0 renal
HOP-92 NSCLC = system: HOP-92 NSCLC
SW-620 colon = system: SW-620 colon
CCRF-CEM leukemia = system: CCRF-CEM leukemia
CAKI-1 renal = system: CAKI-1 renal
HOP-62 NSCLC = system: HOP-62 NSCLC
OVCAR-8 ovarian = system: OVCAR-8 ovarian
SK-MEL-2 melanoma = system: SK-MEL-2 melanoma
SK-MEL-5 melanoma = system: SK-MEL-5 melanoma
SNB-75 CNS = system: SNB-75 CNS
HCC-2998 colon = system: HCC-2998 colon
OVCAR-4 ovarian = system: OVCAR-4 ovarian
M19-MEL melanoma = system: M19-MEL melanoma
IGROV1 ovarian = system: IGROV1 ovarian
M14 melanoma = system: M14 melanoma
EKVX NSCLC = system: EKVX NSCLC
HCT-15 colon = system: HCT-15 colon
XF 498 CNS = system: XF 498 CNS
SF-268 CNS = system: SF-268 CNS
UACC-62 melanoma = system: UACC-62 melanoma
HCT-116 colon = system: HCT-116 colon
HL-60(TB) leukemia = system: HL-60(TB) leukemia
RXF-631 renal = system: RXF-631 renal
DLD-1 colon = system: DLD-1 colon
A549 NSCLC = system: A549 NSCLC
SK-MEL-28 melanoma = system: SK-MEL-28 melanoma

**Q.** What does the source list for `CC(C)c1ccc(C2C3=C(N=C4SCC(=O)N42)C(=O)c2ccccc23)cc1` (centres undefined)?
**A.** TGI (SF-295 CNS): > 100 µM; TGI (SNB-19 CNS): > 100 µM; TGI (LXFL 529 NSCLC): > 100 µM; TGI (KM20L2 colon): > 100 µM; TGI (DMS 114 small cell lung): > 100 µM; TGI (SN12C renal): > 100 µM; TGI (NCI-H226 lung): > 100 µM; TGI (NCI-H522 lung): 98.7 µM; TGI (A498 renal): > 100 µM; TGI (U251 CNS): > 100 µM; TGI (TK-10 renal): > 100 µM; TGI (SK-OV-3 ovarian): > 100 µM; TGI (NCI-H460 lung): > 100 µM; TGI (HT29 colon): > 100 µM; TGI (DMS 273 small cell lung): > 100 µM; TGI (MOLT-4 leukemia): > 100 µM; TGI (K-562 leukemia): > 100 µM; TGI (UACC-257 melanoma): > 100 µM; TGI (KM12 colon): > 100 µM; TGI (MALME-3M melanoma): > 100 µM; TGI (ACHN renal): > 100 µM; TGI (RPMI-8226 leukemia): > 100 µM; TGI (OVCAR-5 ovarian): > 100 µM; TGI (COLO 205 colon): > 100 µM; TGI (NCI-H23 lung): > 100 µM; TGI (SF-539 CNS): > 100 µM; TGI (OVCAR-3 ovarian): > 100 µM; TGI (UO-31 renal): > 100 µM; TGI (786-0 renal): > 100 µM; TGI (HOP-92 NSCLC): > 100 µM; TGI (SW-620 colon): > 100 µM; TGI (CCRF-CEM leukemia): > 100 µM; TGI (CAKI-1 renal): > 100 µM; TGI (HOP-62 NSCLC): > 100 µM; TGI (OVCAR-8 ovarian): > 100 µM; TGI (SK-MEL-2 melanoma): > 100 µM; TGI (SK-MEL-5 melanoma): > 100 µM; TGI (SNB-75 CNS): > 100 µM; TGI (HCC-2998 colon): > 100 µM; TGI (OVCAR-4 ovarian): > 100 µM; TGI (M19-MEL melanoma): > 100 µM; TGI (IGROV1 ovarian): > 100 µM; TGI (M14 melanoma): > 100 µM; TGI (EKVX NSCLC): > 100 µM; TGI (HCT-15 colon): > 100 µM; TGI (XF 498 CNS): > 100 µM; TGI (SF-268 CNS): > 100 µM; TGI (UACC-62 melanoma): > 100 µM; TGI (HCT-116 colon): > 100 µM; TGI (HL-60(TB) leukemia): > 100 µM; TGI (RXF-631 renal): > 100 µM; TGI (DLD-1 colon): > 100 µM; TGI (A549 NSCLC): > 100 µM; TGI (SK-MEL-28 melanoma): > 100 µM
